Results from PMC10878532, “Sperm Toolbox—A selection of small molecules to study human spermatozoa” (PLOS ONE, 2024).

How the values were obtained:
[1] = test system: Testis-Specific Serine/Threonine Kinase 2 (TSSK2); design: method as in PMID 28952188; settings: described as; cited from earlier work
[2] = test system: spermatozoa; design: method as in per compound as listed in column References of Table 1; settings: summaries of reported effects; ref per compound as listed in Table 1; cited from earlier work
[3] = test system: human spermatozoa; test: Motility assay (non-capacitating conditions); format: cell-based
Method: (§1) To compare the effects of STB compounds on specific sperm functions (e.g. motility, acrosome reaction, viability), we screened them in multiple phenotypic functional assays described below. Each sperm function assay has been repeated in multiple donor pools (see Materials and methods), where each pool consists of cells donated from at least 3 different donors to address donor to donor variability. Each compound has been tested at two concentrations, 10 and 30 μM, and normalized to vehicle controls (DMSO, see Materials and methods). We have modified our assays from the previously published workflow by increasing incubation time and introducing conditions that support capacitation, which is a sperm maturation process required for fertilization. These changes expand the range of targets that we can explore in our assays. Our live-sperm-based high-throughput motility assays use an automated microscope to record short timelapse movies. These assays can be run in different protocols (S1 Fig). […] In this protocol, cells are incubated with compounds for 10 min prior to the first motility read-out. A second and third motility read-out were performed after 3h and 6h incubation. The second protocol, denoted ‘capacitation assay’, utilises conditions that support capacitation (S1 Fig). In this protocol, cells are kept in conditions supporting capacitation for 30 minutes prior to 30 minutes incubation with compound, followed by motility read-out. Both protocols allow sperm motility to be measured (0.5 sec time-lapse movies allow tracking of cells and calculation of sperm kinematics). In addition, the capacitation assay also scores hyperactivation (i.e. distinct movement patterns concomitant with capacitation which are crucial for fertilization) (Fig 2A).
Cells were rested for 1 h post density gradient centrifugation. 10 μL assay buffer was dispensed into assay ready plates, plates were put onto a shaker instrument for 30 seconds using 1,000 rpm, followed by a short pulse centrifugation. Plates were incubated for 15–30 mins at 37°C prior to addition of 10 μL of pooled cells (at 1 M/mL concentration). Plates were then incubated in a Yokogawa CV7000 microscope set at 37°C for 10 min prior to imaging. Imaging a 384-well plate requires ≤ 20 min using the following settings: 2 positions per well, 0.5 sec timelapse movies (3x binning; 11 ms exposure time, 22 ms interval time, […]). A second and a third timepoint was recorded after 3 h, and 6 h incubation at 37°C. Data has been processed as described in [8]. Assay results are from 5 separate donor pools.
(§2) For cell painting imaging data, plates of images were imported into OMERO [70]. Cell segmentation and feature extraction were performed using CellProfiler 3 [71] and using instructions from to normalize data. Timelapse data of motility assays was processed as previously described. Acrosome flow cytometry data was processed using NovoCyte Express (PerkinElmer), to gate out background debris, select for single cells and calculate percentage values of acrosome positive events. Sperm viability flow cytometry data was processed using iQue Forecyt (Satorius) to gate out background debris, select for single cells and calculate percentage values of propidium iodide positive events. For all sperm functional assays, data was normalized to DMSO control wells. Each plate had 16 DMSO wells. A median value of all 16 wells was used to calculated percentage change (pct_ch = ((value / DMSO_median) -1) * 100). For sperm viability we calculated fold-change (fc = 1 − (value / DMSO_median)). For each compound we calculated a p-value using a Welch’s t-test implemented in scipy (scipy.stats.ttest_ind) comparing a compounds effect to DMSO controls.

[4] = test system: HepG2; test: HepG2 cytotoxicity assay (resazurin based); format: cell-based; settings: 70h incubation
[5] = test system: human spermatozoa; test: Acrosome assay, protocol 2 (3h with compound, then 1h agonist cocktail); format: cell-based; settings: cluster in Fig 3A; 3h with compound then agonist mix
Method: The acrosome assays utilize a high-throughput flow cytometer (S1 Fig) to score for compounds inducing the acrosome reaction, using peanut agglutinin conjugated to a fluorescent dye to label the outer acrosomal membrane. We have developed two different screening protocols, named ‘acrosome 1’ and ‘acrosome 2’ (S1 Fig). Both protocols are capable of measuring induction of the acrosome reaction upon compound incubation. However, in the acrosome 2 assay, a mixture of physiological agonists of the acrosome reaction is used after cells have been incubated with compounds for 3h under conditions that support capacitation. This addition allowed measurement of inhibition of acrosome reaction (Fig 2B).
(§3) In both experimental protocols, 20 μL of pooled cells (at 1 M/mL concentration) were capacitated for 3 h in presence of compounds at 37°C and 5% CO2. In protocol a, cells were then stained with PNA-Alexa647 (ThermoFisher, 1 mg/mL, final dilution 1:1000) and Hoechst dye for 30 min at 37°C and 5% CO2, followed by 10 min fixation at RT by adding 20 μL of 4% paraformaldehyde (Sigma) in PBS. In mode b, a cocktail of progesterone, prostaglandin A and NH4Cl was added to all compound wells and incubated for an additional 1 h at 37°C and 5% CO2 to induce acrosome reaction. This was followed by fixation and staining protocol as for mode a. In both protocols fixatives and stains were removed and cells were resuspended in PBS, using a 405 platewasher. Plates were then measured on a Novocyte Advanteon high-throughput flow cytometer. Gating of data has been performed using the flow cytometer software to export counts of gated populations. The Acrosome 1 protocol using 3h incubation with compounds was run in 7 separate donor pools. The Acrosome 2 protocol using 3h incubation with compound followed by 1h stimulation of acrosome reaction was run in 5 separate donor pools.
as §2, with “Sperm viability flow cytometry data was processed using iQue Forecyt (Satorius) to gate out background debris, select for single cells and calculate percentage values of propidium iodide positive events. For all sperm functional assays, data was normalized to DMSO control wells. Each plate had 16 DMSO wells.” left out

[6] = test system: human spermatozoa; test: Sperm viability assay (propidium iodide, flow cytometry); format: cell-based; settings: 3h with compound
Method: In this assay, cells are incubated for 3h with compound in non-capacitating media, prior to viability assessment.
Cells were incubated with compounds for a total of 3h at 37°C. 20 min prior, propidium iodide was added (1.5 mM solution, Sigma, final dilution 1:2000). Plates were analysed using a Satorius iQue Screener with settings to allow for a sampling time of ≤30 min per 384-well plate. Gating of data has been performed using the flow cytometer software to export counts of gated populations. This assay was tested in 5 separate donor pools.
as §2

[7] = test system: human spermatozoa; test: Acrosome assay, protocol 1 (3h incubation with compound, no agonist; flow cytometry, PNA); format: cell-based; settings: 3h with compound, no agonist addition
Method: The acrosome assays utilize a high-throughput flow cytometer (S1 Fig) to score for compounds inducing the acrosome reaction, using peanut agglutinin conjugated to a fluorescent dye to label the outer acrosomal membrane. We have developed two different screening protocols, named ‘acrosome 1’ and ‘acrosome 2’ (S1 Fig). […] This addition allowed measurement of inhibition of acrosome reaction (Fig 2B).
as §3, §2

[8] = test system: HeLa; test: HeLa cell painting cytotoxicity assay; format: cell-based; settings: 24h compound incubation
Method: The HeLa-based assay uses the cell painting assay [11], while the HepG2 assay utilizes a resazurin based viability read-out [64].
Cell were incubated with compounds for 24h.
• 10 μL of MitoTracker (Life Technologies, M22426, 1 mM stock in DMSO as recommended by the vendor) is added to 50 μL of media (1:2000 final dilution) • Phalloidin-Alexa594 (Life Technologies, A12381, 66 μM stock in methanol as recommended by the vendor, 1:500 final dilution) • WGA-Alexa594 (Life Technologies, W11262, 5 mg/mL stock, 1:250 final dilution) was used • DAPI (5 mg/mL stock; 1:1000 final dilution) was used to stain DNA • 20 μL of staining solution was used • PBS was used for washing steps
For cell painting imaging data, plates of images were imported into OMERO [70]. Cell segmentation and feature extraction were performed using CellProfiler 3 [71] and using instructions from [11] to normalize data.

[9] = test system: LRRK2 kinase; settings: described as; cited from earlier work
[10] = test system: human spermatozoa; test: Capacitation assay (motility and hyperactivation under capacitating conditions); format: cell-based; settings: cluster in Fig 3A; 30 min capacitation then 30 min with compound
Method: as §1
Cells were capacitated for 30 min at 37°C and 5% CO2. 10 μL assay buffer was dispensed into assay ready plates, plates were put onto a shaker instrument for 30 seconds using 1,000 rpm, followed by a short pulse centrifugation. Plates were incubated for 15–30 mins at 37°C and 5% CO2 prior to addition of 10 μL of pooled cells (at 1 M/mL concentration). This was followed by a 20 min compound incubation step at 37°C and 5% CO2. Plates were then incubated in our CV7000 microscope set at 37°C and 5% CO2 for 10 min prior to imaging. […]
For cell painting imaging data, plates of images were imported into OMERO [70]. […] A median value of all 16 wells was used to calculated percentage change (pct_ch = ((value / DMSO_median) -1) * 100). For sperm viability we calculated fold-change (fc = 1 − (value / DMSO_median)). For each compound we calculated a p-value using a Welch’s t-test implemented in scipy (scipy.stats.ttest_ind) comparing a compounds effect to DMSO controls.

SMILES: CNS(=O)(=O)c1ccccc1Nc1nc(Nc2ccc(C3CCN(C)CC3)cc2OC)ncc1Cl [Compound 19]
- TSSK2 inhibition [1]: potent
- Published Phenotype [2]: Blocks TSSK; similarity to brigatinib
- sperm motility [3]: decrease sperm motility

SMILES: COc1cc(C(=O)N2CCC(N3CCN(C)CC3)CC2)ccc1Nc1ncc2c(n1)N(C)c1ccccc1C(=O)N2C [LRRK2-IN-1]
- general cytotoxicity (HepG2) [4]: do not show effects
- acrosome reaction (acrosome reacted cells) [5]: significantly increased
- effects on sperm viability [6]: do not show effects
- acrosome reacted cells without agonist cocktail [7]: no change
- general cytotoxicity (HeLa) [8]: do not show effects
- progressive motility ([3]; non-capacitating conditions, Fig 2): enhances motility
- LRRK2 kinase inhibition [9]: selective inhibitor
- hyperactive motility [10]: significantly increased
